Here are results for 25 compounds from patent publication US8785460B2, “Tricyclic compounds and use thereof” (Takeda Pharmaceutical Company Limited, priority 2008, dated 2014).

System in one data set: not given
Assay: not given
Settings: not given
Usually melting point stands for the temperature, or range, at which the solid turns liquid. The compound `CCC(OC(C)=O)c1ccc(Cl)c2nc3n(c12)CCCN3c1ccc(OC)nc1C` (single isomer, unassigned; (+)) [Example 267, (+)-1-[9-Chloro-1-(6-methoxy-2-methylpyridin-3-yl)-1,2,3,4-tetrahydropyrimido[1,2-a]benzimidazol-6-yl]propyl acetate] registered a melting point of 110 to 114 °C. On the same count and under the same terms, for `CCC(O)c1ccc(Cl)c2nc3n(c12)CCCN3c1ccc(Cl)cc1Cl` (single isomer, unassigned; (+)) [Example 439, (+)-1-[9-Chloro-1-(2,4-dichlorophenyl)-1,2,3,4-tetrahydropyrimido[1,2-a]benzimidazol-6-yl]propan-1-ol] the value was 233 to 235 °C; for `CCC(O)c1ccc(Cl)c2nc3n(c12)CCCN3c1ccc(Cl)cc1Cl` (single isomer, unassigned; (-)) [Example 438, (−)-1-[9-Chloro-1-(2,4-dichlorophenyl)-1,2,3,4-tetrahydropyrimido[1,2-a]benzimidazol-6-yl]propan-1-ol], 221 to 223 °C; for `CCN(CC)c1cccc2nc3n(c12)CCC(=O)N3c1ccc(Cl)cc1Cl` [Example 19, 1-(2,4-Dichlorophenyl)-6-(diethylamino)-3,4-dihydropyrimido[1,2-a]benzimidazol-2(1H)-one], 113 to 114 °C. With `CCN(CC)c1cccc2nc3n(c12)CCCN3c1ccc(Cl)cc1Cl` [Example 20, 1-(2,4-Dichlorophenyl)-N,N-diethyl-1,2,3,4-tetrahydropyrimido[1,2-a]benzimidazol-6-amine], the melting point was in the range of 131 to 133 °C. Same read-out and setting: for `CCN(CC)c1cccc2nc3n(c12)CC(CC(=O)OC)N3c1ccc(Cl)cc1Cl` (stereo not shown) [Example 72, Methyl [1-(2,4-dichlorophenyl)-5-(diethylamino)-2,3-dihydro-1H-imidazo[1,2-a]benzimidazol-2-yl]acetate] the value was 137 to 138 °C; for `CCN(CC)c1cccc2nc3n(c12)CC(CC(=O)O)N3c1ccc(Cl)cc1Cl` (stereo not shown) [Example 73, [1-(2,4-Dichlorophenyl)-5-(diethylamino)-2,3-dihydro-1H-imidazo[1,2-a]benzimidazol-2-yl]acetic acid], 249 to 251 °C; for `NC(=O)c1cccc2nc3n(c12)CCCN3c1ccc(Cl)cc1Cl` [Example 83, 1-(2,4-Dichlorophenyl)-1,2,3,4-tetrahydropyrimido[1,2-a]benzimidazole-6-carboxamide], 198 to 200 °C.

`N#Cc1cccc2nc3n(c12)CCCN3c1ccc(Cl)cc1Cl` [Example 84, 1-(2,4-Dichlorophenyl)-1,2,3,4-tetrahydropyrimido[1,2-a]benzimidazole-6-carbonitrile] showed a melting point of 170 to 171 °C. For the compound `CN(C)C(=O)c1cccc2nc3n(c12)CCCN3c1ccc(Cl)cc1Cl` [Example 86, 1-(2,4-Dichlorophenyl)-N,N-dimethyl-1,2,3,4-tetrahydropyrimido[1,2-a]benzimidazole-6-carboxamide], the melting point lay in the range of 212 to 213 °C. Same read-out and setting: for `CN(C)Cc1cccc2nc3n(c12)CCCN3c1ccc(Cl)cc1Cl` [Example 87, 1-[1-(2,4-Dichlorophenyl)-1,2,3,4-tetrahydropyrimido[1,2-a]benzimidazol-6-yl]-N,N-dimethylmethanamine] the value was 158 to 159 °C; for `CCN(CC)C(=O)c1cccc2nc3n(c12)CCCN3c1ccc(Cl)cc1Cl` [Example 88, 1-(2,4-Dichlorophenyl)-N,N-diethyl-1,2,3,4-tetrahydropyrimido[1,2-a]benzimidazole-6-carboxamide], 183 to 184 °C. In the case of `CCN(CC)Cc1cccc2nc3n(c12)CCCN3c1ccc(Cl)cc1Cl` [Example 89, N-{[1-(2,4-Dichlorophenyl)-1,2,3,4-tetrahydropyrimido[1,2-a]benzimidazol-6-yl]methyl}-N-ethylethanamine], the melting point fell in the range of 112 to 114 °C. Still for that read-out and setting: for `O=C(c1cccc2nc3n(c12)CCCN3c1ccc(Cl)cc1Cl)N1CC(O)C1` [Example 90, 1-{[1-(2,4-Dichlorophenyl)-1,2,3,4-tetrahydropyrimido[1,2-a]benzimidazol-6-yl]carbonyl}azetidin-3-ol] the value was 257 to 258 °C; for `OC1CN(Cc2cccc3nc4n(c23)CCCN4c2ccc(Cl)cc2Cl)C1` [Example 91, 1-{[1-(2,4-Dichlorophenyl)-1,2,3,4-tetrahydropyrimido[1,2-a]benzimidazol-6-yl]methyl}azetidin-3-ol], 240 to 241 °C.

`CCC(O)c1cccc2nc3n(c12)CCCN3c1ccc(Cl)cc1Cl` (stereo not shown) [Example 92, 1-[1-(2,4-Dichlorophenyl)-1,2,3,4-tetrahydropyrimido[1,2-a]benzimidazol-6-yl]propan-1-ol] had a melting point of 186 to 188 °C. The same measure, in the same setting: for `OC(c1cccc2nc3n(c12)CCCN3c1ccc(Cl)cc1Cl)C1CC1` (stereo not shown) [Example 95, Cyclopropyl[1-(2,4-dichlorophenyl)-1,2,3,4-tetrahydropyrimido[1,2-a]benzimidazol-6-yl]methanol] the value was 208 to 209 °C.

Another data set concerns the target T1, human CRF1 receptor (Homo sapiens, UniProt P34998).
T1 construct: expressed in transfected cells; host or cells: CHO cells (membrane fraction)
T1 sequence (P34998 24-415): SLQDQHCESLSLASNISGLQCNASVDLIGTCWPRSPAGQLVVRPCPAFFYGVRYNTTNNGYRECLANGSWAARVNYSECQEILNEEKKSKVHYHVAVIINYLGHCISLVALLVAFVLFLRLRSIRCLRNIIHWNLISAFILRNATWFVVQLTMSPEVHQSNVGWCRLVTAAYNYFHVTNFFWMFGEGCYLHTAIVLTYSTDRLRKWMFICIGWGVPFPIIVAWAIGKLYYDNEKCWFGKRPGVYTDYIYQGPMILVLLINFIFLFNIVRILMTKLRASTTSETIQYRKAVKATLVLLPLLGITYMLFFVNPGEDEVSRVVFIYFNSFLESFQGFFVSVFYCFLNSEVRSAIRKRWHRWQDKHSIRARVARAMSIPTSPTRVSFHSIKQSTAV
Description: Measurement of CRF Binding Inhibitory Rate (receptor binding experiment with 125I-CRF). To be noted: human CRF1 receptor expressing CHO cellular membrane fraction, 50 pM 125I-CRF, room temperature 1.5 hr, 0.05 nM to 10 μM of compound; read-out: IC50 values (CRF binding inhibition).
One may read the IC50 as the concentration that inhibits the measured activity by half. Regarding `CCC(OC(=O)C(C)C)c1ccc(Cl)c2nc3n(c12)CCCN3c1ccc(Cl)cc1Cl` (stereo not shown) [Example 480, 1-[9-Chloro-1-(2,4-dichlorophenyl)-1,2,3,4-tetrahydropyrimido[1,2-a]benzimidazol-6-yl]propyl 2-methylpropanoate], the IC50 is under 1000 nM. Consider `CCC(OC(=O)C(C)(C)C)c1ccc(Cl)c2nc3n(c12)CCCN3c1ccc(Cl)cc1Cl` (stereo not shown) [Example 481, 1-[9-Chloro-1-(2,4-dichlorophenyl)-1,2,3,4-tetrahydropyrimido[1,2-a]benzimidazol-6-yl]propyl 2,2-dimethylpropanoate], for which the 50% inhibitory concentration (IC50) is under 1000 nM. On to `CCN(CC)c1cccc2nc3n(c12)CCC(=O)NC3c1ccc(Cl)cc1Cl` (stereo not shown) [Example 487, 1-(2,4-Dichlorophenyl)-7-(diethylamino)-1,2,4,5-tetrahydro-3H-[1,4]diazepino[1,2-a]benzimidazol-3-one], for which the IC50 was under 1000 nM. The same measure, in the same setting: for `CCN(CC)c1cccc2nc3n(c12)CCC=C3c1ccc(Cl)cc1Cl` [Example 492, 4-(2,4-Dichlorophenyl)-N,N-diethyl-1,2-dihydropyrido[1,2-a]benzimidazol-9-amine] the value was under 1000 nM; for `CCN(CC)c1cc(F)cc2nc3n(c12)CCCOC3c1ccc(Cl)cc1Cl` (stereo not shown) [Example 494, 1-(2,4-Dichlorophenyl)-N,N-diethyl-9-fluoro-4,5-dihydro-1H,3H-[1,4]oxazepino[4,3-a]benzimidazol-7-amine], under 1000 nM. On to `OC(c1ccc(Cl)c2nc3n(c12)CCCOC3c1ccc(Cl)cc1Cl)(C1CC1)C1CC1` (stereo not shown) [Example 500, [10-Chloro-1-(2,4-dichlorophenyl)-4,5-dihydro-1H,3H-[1,4]oxazepino[4,3-a]benzimidazol-7-yl](dicyclopropyl)methanol], for which the 50% inhibitory concentration (IC50) is under 1000 nM. Still for that read-out and setting: for `CCN(CC)c1ccc(Cl)c2nc3n(c12)CCOC3c1ccc(Cl)cc1Cl` (stereo not shown) [Example 502, 9-Chloro-1-(2,4-dichlorophenyl)-N,N-diethyl-3,4-dihydro-1H-[1,4]oxazino[4,3-a]benzimidazol-6-amine] the value was under 1000 nM; for `CCN(CC)c1cccc2nc3n(c12)CCN=C3c1ccc(Cl)cc1Cl` [Example 507, 1-(2,4-Dichlorophenyl)-N,N-diethyl-3,4-dihydropyrazino[1,2-a]benzimidazol-6-amine], under 1000 nM.
